These results are taken from patent US9598387B2 (Southern Research Institute, priority 2012, dated 2017).

Holding throughout (type): in vivo, rat
For data set [1], the system named is Long Evans rats. Nature of the data set: Cocaine self-administration under PR schedule of reinforcement. The note with it: 3.75, 7.5 or 15 mg/kg intraperitoneally 10 minutes prior to session; compared to vehicle, ps<0.05; cocaine 0.375, 0.75, […]. Here is the method:
These studies were performed using Long Evans rats using standard protocols (Quinlan M. G. et al. Psychopharmacol. 2004, 175, 53-59; Ranaldi, R. et al. Behav. Pharmacol. 2011, 22, 347-353). Cocaine self-administration sessions were conducted in sixteen operant chambers; eight measuring 30×22×27 cm (l×w×h) and the other eight measuring 26×26×30 cm (l×w×h). Each chamber was situated inside a sound-attenuating box and was equipped with two retractable levers, a white light above each lever, and a tether. Polyethylene tubing, covered by the tether, connected the animal, through a fluid swivel, to a syringe in a syringe pump (Razel, 3.33 rpm). Cocaine was dissolved in 0.9% saline to achieve doses of 0.375, 0.75 and 1.5 mg/kg/injection. […] Each animal was tested with one dose of the D3 antagonist, randomly determined, at as many of the three cocaine doses as possible. After a particular test the animal's cocaine dose was changed to another one (randomly determined) and its baseline BP on the new dose was established. BP during the test session was expressed as the percentage of the average BP obtained during the last three baseline sessions. Percentage of baseline BP and final ratio (i.e. the number of lever presses required for the BP infusion) were analyzed using separate two-way analyses of variance (ANOVAs) with dose of 113 and dose of cocaine as between-groups factors. […]

The subject of data set [2] is Long Evans rats. Nature of the data set: Cocaine-induced locomotor activity. The note with it: 3.75, 7.5 or 15 mg/kg 10 minutes before 10 mg/kg cocaine; p<0.05. Here is the method: (§1) These studies were performed using Long Evans rats using standard protocols. Locomotor activity chambers measuring 43×43×30 cm (l×w×h) were used for the locomotor activity experiments. Each chamber was equipped with eight photo-emitters positioned along the length of the chamber 6 cm above the floor, each paired directly opposite a photocell. Locomotor activity counts were registered when adjacent beams were broken consecutively. Before receiving any drug, the animals (n=96) were placed in locomotor activity chambers for habituation, for 2 hours per day for 3 consecutive days. Based on the locomotor activity score obtained during the third habituation session, animals were assigned into one of […] treatment groups. […] For the 113 alone experiments, each of the four groups received one of 4 doses of 113 (0, 3.75, 7.5 or 15 mg/kg) 10 minutes prior to placement in the activity chambers. For the 113 cocaine interaction experiments, each of 4 groups were injected with one of the 4 doses of the compound (0, 3.75, 7.5 or 15 mg/kg) 10 minutes before receiving 10 mg/kg of cocaine as the second injection. […] The locomotor counts in the 113 alone and 113/cocaine experiments were analyzed using two separate mixed-design ANOVAs with 113 dose (between-groups) and 5-min bins (repeated measures) as factors. […]

In data set [3] the test system is Long Evans rats. Nature of the data set: Spontaneous locomotor activity. The note with it: 10 minutes prior to placement in chambers. Here is the method:
as §1

Molecules are shown by their SMILES.

`CC(C)(C)c1nc(N2CCN(CCCCNC(=O)c3cn4ccccc4n3)CC2)cc(C(F)(F)F)n1` [Compound 113, N-(4-(4-(2-(tert-Butyl)-6-(trifluoromethyl)pyrimidin-4-yl)piperazin-1-yl)butyl)imidazo[1,2-a]pyridine-2-carboxamide]: the “percentage of baseline BPs for cocaine under PR schedule” value in the data set on Long Evans rats [1] is given as “significant reductions in the percentage of baseline BPs”. In addition, the cocaine-induced locomotor activity entry in the data set with Long Evans rats [2] is given as “significantly reduce cocaine-induced locomotor activity in a dose-related fashion”. The spontaneous locomotor activity entry in the data set with Long Evans rats [3] (3.75 mg dose) is given as “had no effect on spontaneous locomotor activity”; in the data set on Long Evans rats [3] (7.5 and 15 mg doses) it was “appeared to reduce locomotor activity in the first 5 minutes of testing but did not affect activity after that”.
